Take `Cc1ccc(Nc2nc(CC(C)O)ns2)cc1Cl` (stereo not given): the solubility (mole fraction) reads like this: (in n-hexane, 293.2 K) 3.2e-06; (in n-hexane, 298.2 K) 4.8e-06; (in n-hexane, 303.2 K) 6.2e-06; (in n-hexane, 310.2 K) 9.2e-06; (in n-hexane, 315.2 K) 1.28e-05; (in n-octanol, 293.2 K) 0.0121. The solubility (mole fraction) was 0.0134 (in n-octanol, 298.2 K); 0.0166 (in n-octanol, 303.2 K); 0.021 (in n-octanol, 310.2 K); 0.0251 (in n-octanol, 315.2 K).

With `CC(O)Cc1nsc(Nc2ccc(Cl)cc2)n1` (stereo not given), the solubility (mole fraction) amounted to 3.5e-06 (in n-hexane, 293.2 K); 5.2e-06 (in n-hexane, 298.2 K); 6.9e-06 (in n-hexane, 303.2 K); 1.13e-05 (in n-hexane, 310.2 K); 1.73e-05 (in n-hexane, 315.2 K); 0.0187 (in n-octanol, 293.2 K). In addition, the solubility (mole fraction) came to 0.0218 (in n-octanol, 298.2 K); 0.0245 (in n-octanol, 303.2 K); 0.029 (in n-octanol, 310.2 K); 0.035 (in n-octanol, 315.2 K).

In the case of `Cc1ccc(Cl)cc1Nc1nc(CC(C)O)ns1` (stereo not given), the solubility (mole fraction) is 2.95e-05 (in n-hexane, 293.2 K); 3.79e-05 (in n-hexane, 298.2 K); 4.73e-05 (in n-hexane, 303.2 K); 5.55e-05 (in n-hexane, 310.2 K); 6.64e-05 (in n-hexane, 315.2 K); 0.0441 (in n-octanol, 288.2 K). Also, the solubility (mole fraction) is, setting by setting: (in n-octanol, 290.7 K) 0.0465; (in n-octanol, 293.2 K) 0.0488; (in n-octanol, 295.7 K) 0.0515; (in n-octanol, 298.2 K) 0.054.

For the compound `COc1ccc(Nc2nc(CC(C)O)ns2)cc1` (stereo not given), the solubility (mole fraction) is 9.2e-06 (in n-hexane, 293.2 K); 1.51e-05 (in n-hexane, 298.2 K); 2.02e-05 (in n-hexane, 303.2 K); 3.51e-05 (in n-hexane, 310.2 K); 4.8e-05 (in n-hexane, 315.2 K); 0.0466 (in n-octanol, 293.2 K). Moreover, the solubility (mole fraction) was 0.0627 (in n-octanol, 298.2 K); 0.0694 (in n-octanol, 303.2 K); 0.101 (in n-octanol, 310.2 K); 0.121 (in n-octanol, 315.2 K).

Consider `CC(O)Cc1nsc(Nc2cccc(Cl)c2)n1` (stereo not given), for which the solubility (mole fraction) by setting is: (in n-hexane, 293.2 K) 5.5e-06; (in n-hexane, 298.2 K) 9e-06; (in n-hexane, 303.2 K) 1.32e-05; (in n-hexane, 310.2 K) 2.4e-05; (in n-hexane, 315.2 K) 3.62e-05; (in n-octanol, 293.2 K) 0.0546. Further, the solubility (mole fraction) turned out to be 0.0633 (in n-octanol, 298.2 K); 0.0729 (in n-octanol, 303.2 K); 0.0885 (in n-octanol, 310.2 K); 0.101 (in n-octanol, 315.2 K).

With `Cc1cccc(Nc2nc(CC(C)O)ns2)c1` (stereo not given), the solubility (mole fraction) is 2.49e-05 (in n-hexane, 293.2 K); 3.4e-05 (in n-hexane, 298.2 K); 4.59e-05 (in n-hexane, 303.2 K); 5.6e-05 (in n-hexane, 310.2 K); 7.05e-05 (in n-hexane, 315.2 K); 0.0266 (in n-octanol, 293.2 K). Also, the solubility (mole fraction) runs as follows: (in n-octanol, 298.2 K) 0.0355; (in n-octanol, 303.2 K) 0.038; (in n-octanol, 310.2 K) 0.0501; (in n-octanol, 315.2 K) 0.0558.

As usually defined, the solubility (mole fraction) is the moles of solute divided by all moles in the saturated solution.
